Laboratory results taken from ChEMBL document CHEMBL3885881, “DrugMatrix”.

Species: Rattus norvegicus
Assay: DrugMatrix - Regimen: Daily Repeat
Type: toxicity, organism-based, Sprague-Dawley
Parameters: regimen Daily Repeat, gender Male, age 6-8 weeks
Conditions: in vivo, po, route oral GAVAGE, vehicle 100 % WATER; for BASOPHIL / EOSINOPHIL / ERYTHROCYTE COUNT / HEMATOCRIT / HEMOGLOBIN / LEUKOCYTE COUNT / LYMPHOCYTE / MEAN CORPUSCULAR HEMOGLOBIN / MEAN CORPUSCULAR HEMOGLOBIN CONCENTRATION / MEAN CORPUSCULAR VOLUME / MONOCYTE / NEUTROPHIL / PLATELET COUNT / ABSOLUTE BASOPHIL / ABSOLUTE EOSINOPHIL / ABSOLUTE LYMPHOCYTE / ABSOLUTE MONOCYTE: tissue Blood; for ALANINE AMINOTRANSFERASE / ALBUMIN / ALKALINE PHOSPHATASE / ASPARTATE AMINOTRANSFERASE / BLOOD UREA NITROGEN / CARBON DIOXIDE / CHLORIDE / CHOLESTEROL / CREATINE PHOSPHOKINASE / CREATININE / GLUCOSE / LACTATE DEHYDROGENASE / LIPASE / PHOSPHORUS / POTASSIUM / SODIUM / TOTAL BILIRUBIN / TOTAL PROTEIN / URIC ACID: tissue Plasma
[1] = 0 mg/kg, […], dose level Control, time 14 day
[2] = 120 mg/kg, 72 h, dose level High, time 3 day
[3] = 120 mg/kg, 120 h, dose level High, time 5 day

Structure (SMILES): COCCc1ccc(OCC(O)CNC(C)C)cc1 (configuration not stated) [METOPROLOL]
- BASOPHIL [1]: 0.93%
- EOSINOPHIL [1]: 0.5%
- ERYTHROCYTE COUNT [1]: 7.2 x10E6/uL
- HEMATOCRIT [1]: 43.27%
- HEMOGLOBIN [1]: 14.73 G/DL
- LEUKOCYTE COUNT [1]: 12.58 x10E3/uL
- LYMPHOCYTE [1]: 75.5%
- MEAN CORPUSCULAR HEMOGLOBIN [1]: 20.5 pg
- MEAN CORPUSCULAR HEMOGLOBIN CONCENTRATION [1]: 34.07 G/DL
- MEAN CORPUSCULAR VOLUME [1]: 60.1 fL
- MONOCYTE [1]: 1.33%
- NEUTROPHIL [1]: 20.5%
- PLATELET COUNT [1]: 1162 x10E3/uL
- ALANINE AMINOTRANSFERASE [1]: 25.33 u/L
- ALBUMIN [1]: 3.87 G/DL
- ALKALINE PHOSPHATASE [1]: 321.67 u/L
- ASPARTATE AMINOTRANSFERASE [1]: 60.33 u/L
- BLOOD UREA NITROGEN [1]: 13.33 mg/dL
- CARBON DIOXIDE [1]: 45 mmol/L
- CHLORIDE [1]: 104.67 MEQ/L
- CHOLESTEROL [1]: 72.33 mg/dL
- CREATINE PHOSPHOKINASE [1]: 213.33 u/L
- CREATININE [1]: 0.3 mg/dL
- GLUCOSE [1]: 164 mg/dL
- LACTATE DEHYDROGENASE [1]: 84.33 u/L
- LIPASE [1]: 18.33 u/L
- PHOSPHORUS [1]: 10.23 mg/dL
- POTASSIUM [1]: 6.17 MEQ/L
- SODIUM [1]: 144 MEQ/L
- TOTAL BILIRUBIN [1]: 0.37 mg/dL
- TOTAL PROTEIN [1]: 6.43 G/DL
- URIC ACID [1]: 0.0667 mg/dL
- ABSOLUTE BASOPHIL [2]: 76.7 cells/µL
- ABSOLUTE EOSINOPHIL [2]: 230 cells/µL
- ABSOLUTE LYMPHOCYTE [2]: 5150 cells/µL
- ABSOLUTE MONOCYTE [2]: 220 cells/µL
- BASOPHIL [2]: 1.03%
- EOSINOPHIL [2]: 3.13%
- ERYTHROCYTE COUNT [2]: 6.58 x10E6/uL
- HEMATOCRIT [2]: 42.5%
- HEMOGLOBIN [2]: 14.4 G/DL
- LEUKOCYTE COUNT [2]: 7.41 x10E3/uL
- LYMPHOCYTE [2]: 69.3%
- MEAN CORPUSCULAR HEMOGLOBIN [2]: 21.87 pg
- MEAN CORPUSCULAR HEMOGLOBIN CONCENTRATION [2]: 33.8 G/DL
- MEAN CORPUSCULAR VOLUME [2]: 64.63 fL
- MONOCYTE [2]: 2.97%
- NEUTROPHIL [2]: 23.23%
- PLATELET COUNT [2]: 1007 x10E3/uL
- ALANINE AMINOTRANSFERASE [2]: 35 u/L
- ALBUMIN [2]: 3.7 G/DL
- ALKALINE PHOSPHATASE [2]: 368.67 u/L
- ASPARTATE AMINOTRANSFERASE [2]: 69.33 u/L
- BLOOD UREA NITROGEN [2]: 16.67 mg/dL
- CARBON DIOXIDE [2]: 34.67 mmol/L
- CHLORIDE [2]: 104 MEQ/L
- CHOLESTEROL [2]: 74.33 mg/dL
- CREATINE PHOSPHOKINASE [2]: 338.33 u/L
- CREATININE [2]: 0.47 mg/dL
- GLUCOSE [2]: 161.33 mg/dL
- LACTATE DEHYDROGENASE [2]: 274.33 u/L
- LIPASE [2]: 13 u/L
- PHOSPHORUS [2]: 11.6 mg/dL
- POTASSIUM [2]: 6.57 MEQ/L
- SODIUM [2]: 142.67 MEQ/L
- TOTAL BILIRUBIN [2]: 0.37 mg/dL
- TOTAL PROTEIN [2]: 6.03 G/DL
- URIC ACID [2]: 0.97 mg/dL
- ABSOLUTE BASOPHIL [3]: 66.7 cells/µL
- ABSOLUTE EOSINOPHIL [3]: 380 cells/µL
- ABSOLUTE LYMPHOCYTE [3]: 7010 cells/µL
- ABSOLUTE MONOCYTE [3]: 250 cells/µL
